PMC11681892, “Targeting p62 by sulforaphane promotes autolysosomal degradation of SLC7A11, inducing ferroptosis for osteosarcoma treatment” (Redox Biology, 2024)

Experiments:
p62 [1] = target: T1, p62 (Homo sapiens, UniProt Q13501); experiment: microscale thermophoresis (Monolith NT.[…]); format: binding
T1 construct: gene SQSTM1; p62-mCherry plasmid expressed in HEK293T, RIPA lysate (MST); endogenous p62 in human osteosarcoma cells (CETSA); p62 mutants transfected into 143B cells (DARTS)

p62 [2] = target: T1, p62; experiment: cellular thermal shift assay (CETSA), western blot; format: cell-based; conditions: endogenous p62 in osteosarcoma cells, SFN 20 μM, 2 h, 46-60 °C gradient

T1 sequence (Q13501 2-440): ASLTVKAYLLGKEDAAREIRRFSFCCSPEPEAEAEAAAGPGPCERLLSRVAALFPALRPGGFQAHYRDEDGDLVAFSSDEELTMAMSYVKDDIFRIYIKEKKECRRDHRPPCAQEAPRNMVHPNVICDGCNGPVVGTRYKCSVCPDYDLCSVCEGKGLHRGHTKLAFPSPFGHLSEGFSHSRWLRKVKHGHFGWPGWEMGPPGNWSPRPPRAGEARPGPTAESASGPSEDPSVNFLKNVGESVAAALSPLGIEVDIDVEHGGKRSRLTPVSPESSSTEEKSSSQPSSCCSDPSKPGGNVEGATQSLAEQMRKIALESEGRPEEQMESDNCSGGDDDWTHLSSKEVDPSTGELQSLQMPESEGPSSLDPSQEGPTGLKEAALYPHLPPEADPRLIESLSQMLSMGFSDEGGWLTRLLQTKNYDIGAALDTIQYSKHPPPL

Kd (p62 [1]): 15.5 ± 3.93 µM
SMILES: C[S@@+]([O-])CCCCN=C=S [Sulforaphane]
thermal stability (CETSA) (p62 [2]): SFN significantly enhanced the thermal stability of p62 in OS cells (Fig. 6C)
